# Reference: the supplement of paper PMC10307832
# Legend:
# Test in all cases: relative viability (nuclei count vs DMSO), 5 days (fraction); higher = more cells survive
# [1] = compound: CN(C)C/C=C/C(=O)Nc1cc2c(Nc3ccc(F)c(Cl)c3)ncnc2cc1O[C@H]1CCOC1 [Afatinib] + COc1cc2c(Oc3ccc(NC(=O)C4(C(=O)Nc5ccc(F)cc5)CC4)cc3F)ccnc2cc1OCCCN1CCOCC1 [Foretinib] (partner 0.25 µM)
# Method in brief: (§1)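 One day after seeding in 1536-well plates, lung cancer cell lines were dosed by pin tool. Dosing was either single-drug or a fixed anchor-drug dose plus five library-drug doses (not always all listed) in √10 steps. After 5 days, nuclei were stained in one fix-and-stain step and counted on 4× images, and relative viability is the nuclei count of treated wells over that of vehicle wells, given as the median of duplicate plates.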
# [2] = compound: CN(C)C/C=C/C(=O)Nc1cc2c(Nc3ccc(F)c(Cl)c3)ncnc2cc1O[C@H]1CCOC1 [Afatinib] + CS(=O)(=O)N1CCN(Cc2cc3nc(-c4cccc5[nH]ncc45)nc(N4CCOCC4)c3s2)CC1 [Pictilisib] (partner 1 µM)
# Method in brief: as §1
# [3] = compound: CN(C)C/C=C/C(=O)Nc1cc2c(Nc3ccc(F)c(Cl)c3)ncnc2cc1O[C@H]1CCOC1 [Afatinib] + NC(=O)Nc1cc(-c2cccc(F)c2)sc1C(=O)N[C@H]1CCCNC1 [AZD7762] (partner 0.2 µM)
# Method in brief: as §1
# [4] = compound: CN(C)C/C=C/C(=O)Nc1cc2c(Nc3ccc(F)c(Cl)c3)ncnc2cc1O[C@H]1CCOC1 [Afatinib] + O=C(CCCCCCC(=O)Nc1ccccc1)NO [Vorinostat] (partner 1 µM)
# Method in brief: as §1
Cell Line,relative viability ([1]; first compound 0.005 µM),relative viability ([1]; first compound 0.01581 µM),relative viability ([1]; first compound 0.05 µM),relative viability ([1]; first compound 0.1581 µM),relative viability ([1]; first compound 0.5 µM),relative viability ([2]; first compound 0.005 µM),relative viability ([2]; first compound 0.01581 µM),relative viability ([2]; first compound 0.05 µM),relative viability ([2]; first compound 0.1581 µM),relative viability ([2]; first compound 0.5 µM),relative viability ([3]; first compound 0.005 µM),relative viability ([3]; first compound 0.01581 µM),relative viability ([3]; first compound 0.05 µM),relative viability ([3]; first compound 0.1581 µM),relative viability ([3]; first compound 0.5 µM),relative viability ([4]; first compound 0.005 µM),relative viability ([4]; first compound 0.01581 µM),relative viability ([4]; first compound 0.05 µM),relative viability ([4]; first compound 0.1581 µM),relative viability ([4]; first compound 0.5 µM)
NCI-H1975,0.952,0.907,0.872,0.353,0.303,0.293,0.185,0.164,0.17,0.0947,0.867,0.676,0.538,0.43,0.312,0.711,0.667,0.59,0.357,0.26
NCI-H1437,1.26,1.27,1.24,1.31,1.33,0.489,0.407,0.378,0.468,0.471,1.11,1.05,1.19,1.09,1.2,0.841,0.831,0.967,0.776,0.908
NCI-H1651,0.825,0.636,0.822,0.748,0.746,0.58,0.533,0.546,0.553,0.449,0.396,0.361,0.424,0.421,0.451,0.628,0.521,0.512,0.575,0.539
LCLC-103H,0.832,0.814,0.734,0.834,0.846,0.621,0.572,0.642,0.62,0.482,0.758,0.814,0.758,0.781,0.78,0.809,0.817,0.703,0.732,0.704
NCI-H1666,0.932,0.812,0.761,0.725,0.774,0.329,0.252,0.344,–,0.345,0.824,0.776,0.824,0.608,0.76,1,1.03,1.03,0.811,0.712
NCI-H1734,0.926,0.785,0.83,0.73,0.924,0.479,0.467,0.486,0.438,0.416,0.389,0.602,0.58,0.498,0.471,0.795,0.826,0.874,0.779,0.831
EPLC-272H,0.492,0.426,0.406,0.381,0.355,0.342,0.301,0.297,0.324,0.348,0.139,0.229,0.175,0.187,0.168,0.402,0.387,0.347,0.448,0.273
BEN,0.719,0.63,0.651,0.634,0.775,0.563,0.532,0.565,0.601,0.589,0.618,0.704,0.648,0.642,0.636,0.588,0.564,0.559,0.557,0.574
